Columns and labels:
Assay type in all cases: ADME
CYP2C8 [1] = target: T1, CYP2C8 (Homo sapiens, UniProt P10632); assay: Inhibition of CYP2C8 in human liver microsomes assessed as enzyme-mediated metabolite formation at 10 uM using paclitaxel as substrate preincubated for 20 mins followed by substrate addition measured after 30 mins in presence of NADPH by LC-MS/MS analysis relative to control; design: scale not given: the % may be the effect or the level left; settings: probe paclitaxel, read-out: Activity
T1 sequence (P10632 whole entry): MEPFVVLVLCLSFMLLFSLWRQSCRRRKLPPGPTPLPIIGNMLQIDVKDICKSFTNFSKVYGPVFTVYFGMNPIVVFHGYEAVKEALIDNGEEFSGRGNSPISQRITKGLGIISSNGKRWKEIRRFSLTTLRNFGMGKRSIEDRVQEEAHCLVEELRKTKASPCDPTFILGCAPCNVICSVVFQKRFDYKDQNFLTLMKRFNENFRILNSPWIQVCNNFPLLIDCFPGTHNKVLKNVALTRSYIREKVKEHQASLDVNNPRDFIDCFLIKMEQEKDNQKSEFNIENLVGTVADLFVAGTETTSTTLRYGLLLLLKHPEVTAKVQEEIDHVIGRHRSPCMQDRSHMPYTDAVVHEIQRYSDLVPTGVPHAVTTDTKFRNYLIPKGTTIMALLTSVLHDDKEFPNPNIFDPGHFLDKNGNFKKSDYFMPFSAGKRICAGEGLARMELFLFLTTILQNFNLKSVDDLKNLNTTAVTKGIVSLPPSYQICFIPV

Cytochrome P450 1A2 = target: T2, Cytochrome P450 1A2 (Homo sapiens, UniProt P05177); assay: Inhibition of human CYP1A2 using phenacetin as substrate incubated for 5 mins followed by NADPH addition measured after 30 mins by LC-MS/MS analysis
T2 sequence (P05177 whole entry): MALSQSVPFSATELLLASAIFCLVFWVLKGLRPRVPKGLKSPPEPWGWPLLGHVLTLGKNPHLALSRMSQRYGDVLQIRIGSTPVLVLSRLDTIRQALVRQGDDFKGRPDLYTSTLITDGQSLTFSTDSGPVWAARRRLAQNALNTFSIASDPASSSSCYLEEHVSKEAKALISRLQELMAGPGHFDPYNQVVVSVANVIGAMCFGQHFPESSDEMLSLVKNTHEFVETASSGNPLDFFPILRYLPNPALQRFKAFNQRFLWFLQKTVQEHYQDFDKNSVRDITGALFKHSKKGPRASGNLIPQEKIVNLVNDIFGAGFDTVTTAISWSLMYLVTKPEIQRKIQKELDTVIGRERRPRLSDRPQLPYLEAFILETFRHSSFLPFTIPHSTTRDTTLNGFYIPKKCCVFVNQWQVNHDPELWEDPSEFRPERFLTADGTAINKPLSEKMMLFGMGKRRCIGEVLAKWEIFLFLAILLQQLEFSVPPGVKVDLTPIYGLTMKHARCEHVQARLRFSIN

CYP2D6 [2] = target: T3, CYP2D6 (Homo sapiens, UniProt P10635); assay: Inhibition of CYP2D6 in human liver microsomes assessed as enzyme-mediated metabolite formation at 10 uM using dextromethorphan as substrate preincubated for 20 mins followed by substrate addition measured after 30 mins in presence of NADPH by LC-MS/MS analysis relative to control; design: scale not given: the % may be the effect or the level left; settings: probe dextromethorphan, read-out: Activity
T3 sequence (P10635 whole entry): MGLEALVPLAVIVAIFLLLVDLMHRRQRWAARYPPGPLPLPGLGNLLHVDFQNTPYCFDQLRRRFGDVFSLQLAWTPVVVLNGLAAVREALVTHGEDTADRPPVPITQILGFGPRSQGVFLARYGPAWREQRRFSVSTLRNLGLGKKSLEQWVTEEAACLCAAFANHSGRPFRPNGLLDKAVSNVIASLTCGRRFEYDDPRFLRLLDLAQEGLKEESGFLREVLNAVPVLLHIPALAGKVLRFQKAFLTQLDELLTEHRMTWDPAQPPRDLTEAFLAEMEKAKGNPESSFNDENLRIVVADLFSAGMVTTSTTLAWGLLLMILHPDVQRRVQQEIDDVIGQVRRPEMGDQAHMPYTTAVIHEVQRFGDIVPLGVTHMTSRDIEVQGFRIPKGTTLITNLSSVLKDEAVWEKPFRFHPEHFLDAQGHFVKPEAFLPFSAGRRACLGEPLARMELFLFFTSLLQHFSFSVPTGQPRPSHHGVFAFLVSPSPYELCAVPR

CYP2C19 [3] = target: T4, CYP2C19 (Homo sapiens, UniProt P33261); assay: Inhibition of CYP2C19 in human liver microsomes assessed as enzyme-mediated metabolite formation at 0.3 uM using (S)-mephenytoin as substrate incubated for 5 mins followed by NADPH addition measured after 30 mins by LC-MS/MS analysis relative to control; design: scale not given: the % may be the effect or the level left; settings: probe (S)-mephenytoin, read-out: Activity
T4 sequence (P33261 whole entry): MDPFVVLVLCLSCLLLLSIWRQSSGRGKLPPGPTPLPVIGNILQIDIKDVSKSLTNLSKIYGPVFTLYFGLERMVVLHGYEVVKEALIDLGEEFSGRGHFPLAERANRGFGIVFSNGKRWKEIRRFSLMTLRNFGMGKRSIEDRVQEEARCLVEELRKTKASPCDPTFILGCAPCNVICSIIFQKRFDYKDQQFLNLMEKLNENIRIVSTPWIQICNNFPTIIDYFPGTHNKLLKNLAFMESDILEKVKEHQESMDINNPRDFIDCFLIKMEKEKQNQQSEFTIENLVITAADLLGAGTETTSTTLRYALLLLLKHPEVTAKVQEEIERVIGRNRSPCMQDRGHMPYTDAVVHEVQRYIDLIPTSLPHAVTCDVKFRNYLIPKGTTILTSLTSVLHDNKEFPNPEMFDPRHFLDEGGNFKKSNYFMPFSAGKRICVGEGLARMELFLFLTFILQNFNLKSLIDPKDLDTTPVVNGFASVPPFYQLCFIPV

CYP2D6 [4] = target: T3, CYP2D6; assay: Inhibition of CYP2D6 in human liver microsomes assessed as enzyme-mediated metabolite formation at 10 uM using dextromethorphan as substrate incubated for 5 mins followed by NADPH addition measured after 30 mins by LC-MS/MS analysis relative to control; design: scale not given: the % may be the effect or the level left; settings: probe dextromethorphan, read-out: Activity
Cytochrome P450 2C9 = Cytochrome P450 2C9 (Homo sapiens, UniProt P11712); assay: Inhibition of human CYP2C9 using diclofenac as substrate incubated for 5 mins followed by NADPH addition measured after 30 mins by LC-MS/MS analysis
Chain of Cytochrome P450 2C9 (P11712 whole entry): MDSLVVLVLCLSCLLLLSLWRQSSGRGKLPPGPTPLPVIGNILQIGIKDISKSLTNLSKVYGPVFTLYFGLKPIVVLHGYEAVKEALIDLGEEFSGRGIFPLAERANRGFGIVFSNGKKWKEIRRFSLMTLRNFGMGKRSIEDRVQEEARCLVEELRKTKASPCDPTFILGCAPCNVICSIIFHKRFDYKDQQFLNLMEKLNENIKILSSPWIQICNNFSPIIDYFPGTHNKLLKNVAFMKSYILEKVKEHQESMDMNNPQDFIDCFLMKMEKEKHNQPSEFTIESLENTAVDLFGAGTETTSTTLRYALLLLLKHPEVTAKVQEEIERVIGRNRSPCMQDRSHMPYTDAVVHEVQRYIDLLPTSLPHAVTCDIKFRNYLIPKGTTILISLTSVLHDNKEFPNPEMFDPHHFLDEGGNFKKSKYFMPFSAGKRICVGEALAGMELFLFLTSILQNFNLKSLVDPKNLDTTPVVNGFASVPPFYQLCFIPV

CYP2C9 = CYP2C9 (Homo sapiens, UniProt P11712); assay: Inhibition of CYP2C9 in human liver microsomes assessed as enzyme-mediated metabolite formation at 1 uM using diclofenac as substrate incubated for 5 mins followed by NADPH addition measured after 30 mins by LC-MS/MS analysis relative to control; design: scale not given: the % may be the effect or the level left; settings: probe diclofenac, read-out: Activity
Chain of CYP2C9 (P11712 whole entry): as above

CYP2B6 = target: T5, CYP2B6 (Homo sapiens, UniProt P20813); assay: Inhibition of CYP2B6 in human liver microsomes assessed as enzyme-mediated metabolite formation at 0.1 uM using bupropion as substrate preincubated for 20 mins followed by substrate addition measured after 30 mins in presence of NADPH by LC-MS/MS analysis relative to control; design: scale not given: the % may be the effect or the level left; settings: probe bupropion, read-out: Activity
T5 sequence (P20813 whole entry): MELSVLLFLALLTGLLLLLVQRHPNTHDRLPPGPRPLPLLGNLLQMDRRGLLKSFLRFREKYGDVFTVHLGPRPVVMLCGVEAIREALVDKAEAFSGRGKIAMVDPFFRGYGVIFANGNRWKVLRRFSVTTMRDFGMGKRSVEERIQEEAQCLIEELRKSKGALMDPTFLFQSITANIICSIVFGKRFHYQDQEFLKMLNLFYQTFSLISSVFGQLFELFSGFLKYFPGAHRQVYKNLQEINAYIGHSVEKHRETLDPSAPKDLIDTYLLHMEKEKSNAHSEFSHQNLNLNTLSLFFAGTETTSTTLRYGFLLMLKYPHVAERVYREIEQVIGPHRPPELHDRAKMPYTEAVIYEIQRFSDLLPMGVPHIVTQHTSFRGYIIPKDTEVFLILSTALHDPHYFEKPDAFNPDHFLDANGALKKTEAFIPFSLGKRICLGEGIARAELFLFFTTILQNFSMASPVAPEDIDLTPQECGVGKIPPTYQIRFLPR

CYP1A2 = target: T6, CYP1A2 (Homo sapiens, UniProt P05177); assay: Inhibition of CYP1A2 in human liver microsomes assessed as enzyme-mediated metabolite formation at 0.3 uM using phenacetin as substrate incubated for 5 mins followed by NADPH addition measured after 30 mins by LC-MS/MS analysis relative to control; design: scale not given: the % may be the effect or the level left; settings: probe phenacetin, read-out: Activity
T6 sequence (P05177 whole entry): T2 sequence (P05177 whole entry)

CYP2C8 [5] = target: T1, CYP2C8; assay: Inhibition of CYP2C8 in human liver microsomes assessed as enzyme-mediated metabolite formation at 1 uM using paclitaxel as substrate incubated for 5 mins followed by NADPH addition measured after 30 mins by LC-MS/MS analysis relative to control; design: scale not given: the % may be the effect or the level left; settings: probe paclitaxel, read-out: Activity
Cytochrome P450 3A4 = Cytochrome P450 3A4 (Homo sapiens, UniProt P08684); assay: Inhibition of CYP3A4 in human liver microsomes using testosterone as substrate preincubated for 20 mins followed by substrate addition measured after 30 mins in presence of NADPH by LC-MS/MS analysis
Chain of Cytochrome P450 3A4 (P08684 whole entry): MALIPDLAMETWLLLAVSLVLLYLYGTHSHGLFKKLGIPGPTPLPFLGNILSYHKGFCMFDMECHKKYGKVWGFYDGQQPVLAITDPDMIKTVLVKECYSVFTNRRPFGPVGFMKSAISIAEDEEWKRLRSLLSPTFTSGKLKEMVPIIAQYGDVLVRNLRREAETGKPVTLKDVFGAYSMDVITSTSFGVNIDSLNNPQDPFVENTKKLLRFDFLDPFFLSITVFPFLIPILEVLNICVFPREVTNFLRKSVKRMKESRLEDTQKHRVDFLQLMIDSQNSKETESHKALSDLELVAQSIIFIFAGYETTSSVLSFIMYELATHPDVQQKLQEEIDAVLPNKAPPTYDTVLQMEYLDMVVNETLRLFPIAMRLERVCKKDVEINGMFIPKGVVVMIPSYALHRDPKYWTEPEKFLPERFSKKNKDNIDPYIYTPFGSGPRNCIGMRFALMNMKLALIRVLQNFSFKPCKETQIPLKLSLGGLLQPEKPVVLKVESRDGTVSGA

CYP2C19 [6] = target: T4, CYP2C19; assay: Inhibition of CYP2C19 in human liver microsomes assessed as enzyme-mediated metabolite formation at 1 uM using (S)-mephenytoin as substrate preincubated for 20 mins followed by substrate addition measured after 30 mins in presence of NADPH by LC-MS/MS analysis relative to control; design: scale not given: the % may be the effect or the level left; settings: probe (S)-mephenytoin, read-out: Activity

CCCCCCCC(=O)CCc1ccc(O)c(OC)c1
activity at 0.5 h, 10 µM (CYP2C8 [1]): 49%
IC50 (Cytochrome P450 1A2): 21.4 µM
inhibition (INH) (Cytochrome P450 1A2; human, 0.5 h): Dose-dependent effect
activity at 0.5 h, 10 µM (CYP2D6 [2]): 99.4%
activity at 0.5 h, 0.3 µM (CYP2C19 [3]): 85.8%
activity at 0.5 h, 10 µM (CYP2D6 [4]): 60.4%
IC50 (Cytochrome P450 2C9): 10.5 µM
inhibition (INH) (Cytochrome P450 2C9; human, 0.5 h): Dose-dependent effect
activity at 0.5 h, 1 µM (CYP2C9): 76.6%
activity at 0.5 h, 0.1 µM (CYP2B6): 88.5%
activity at 0.5 h, 0.3 µM (CYP1A2): 97.8%
activity at 0.5 h, 1 µM (CYP2C8 [5]): 68.7%
IC50 (Cytochrome P450 3A4): > 30 µM
activity at 0.5 h, 1 µM (CYP2C19 [6]): 72.1%

Reference: ChEMBL document CHEMBL4007467, “Effects of 6-paradol, an unsaturated ketone from gingers, on cytochrome P450-mediated drug metabolism” (Bioorg Med Chem Lett, 2017)
